PubChem BioAssay (NCI)
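The compound was tested at five concentrations on cells cultured in 96-well plates, with a 48-hour exposure period. TGI denotes the concentration required for complete inhibition of growth.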

Experiments:
Test in all cases: NCI-60 cell line screen, 48 h
[1] = test system: SNB-75 CNS
[2] = test system: NCI-H460 lung
[3] = test system: CCRF-CEM leukemia
[4] = test system: NCI-H226 lung
[5] = test system: TK-10 renal
[6] = test system: MDA-MB-435
[7] = test system: MALME-3M melanoma
[8] = test system: RXF 393 renal
[9] = test system: HL-60(TB) leukemia
[10] = test system: DU-145 prostate

Structure (SMILES): CCCCCC(O)(CCCCC)CCCCCCCCC1=C(O)c2ccccc2C(=O)C1=O
- TGI [1]: > 80.2 µM
- TGI [2]: 17.7 µM
- TGI [3]: > 100 µM
- TGI [4]: 36.4 µM
- TGI [5]: > 75.5 µM
- TGI [6]: > 62.4 µM
- TGI [7]: 28.6 µM
- TGI [8]: 29.9 µM
- TGI [9]: 14 µM
- TGI [10]: 25.7 µM
